Patent US11155586B2, “Cystine knot scaffold platform” (Genentech, Inc., priority 2015, dated 2021)
Positions of bridges follow the written chain, without caps; N, C: chain ends. Residues, ends and D or L forms follow the SMILES beside them.

How the values were obtained:
trypsin [1] = assay: Trypsin protease activity, peptide substrate cleavage assay; format: biochemical; details: FIG. 3
[2] = molecular target: hVEGF-A mutants (Y21A, K48A, Q89A, F17A/M81A); assay: SPR binding assay, hVEGF-A mutants; design: species or system human; kd: unit not given here
Protocol: Depending on the format of the assay either a streptavidin sensor (SA) or a dextran-coated (CM5) sensor was utilized as described below.
For use with the SA sensor, VEGF-A was first biotinylated (no more than 2 biotin/VEGF-A) by incubating the protein with EZ-link NHS-PEG4-Biotin (Pierce) in a 1:1.5 molar ratio respectively, in PBS for 2 hours on ice. Reaction was then quenched by addition of 10 molar excess of Glycine pH 8.0 and the sample was buffer exchanged into PBS using an Amicon 0.5 mL 3000 MWCO ultra-centrifugal filters (EMD Millipore). The biotinylation state of the protein was verified by LC-MS analysis. Biotinylated VEGF-A was then captured on the surface until a resonance unit (RU) signal of about ˜400. For immobilization of VEGF-A on CM5 sensor, the surface was first activated with a mixture of N-ethyl-N′-(3-dimethylaminopropyl)carbodiimide hydrochloride and N-hydroxysuccinimide (EDC/NHS) according to the supplier instructions. VEGF-A was then diluted into coupling buffer (0.1 M Acetate Buffer, pH 5.0) and injected until the signal reached about ˜400 RU followed by a wash with 1 M ethanolamine pH 8.0 to quench remaining activated sites.
Following the capture step, a series of the peptide concentrations were prepared in HBS-EP buffer with matching DMSO concentrations to 0.1% and injected at a flow rate of […]. The resulting sensorgrams were then analyzed using a 1:1 binding model to obtain kinetic data and affinities using Scrubber 2.0 (BioLogic Software).
The binding interface of VEGF_CKP9.54.90 on VEGF-A overlaps with that of the natural receptors and G6.31 antibody (FIGS. 7 and 8). […] However, K48A mutation enhanced the binding of VEGF_CKP9.54.90 by ˜2-3 fold, a behavior that is similar to that observed with the G6.31 antibody (Fuh et al. (2006) J. Biol. Chem. 281, 6625-6631).

hVEGF-A (8-109) = molecular target: T1, hVEGF-A (8-109) (Homo sapiens, UniProt P15692); assay: Phage competition ELISA; format: binding
T1 sequence (P15692 214-315): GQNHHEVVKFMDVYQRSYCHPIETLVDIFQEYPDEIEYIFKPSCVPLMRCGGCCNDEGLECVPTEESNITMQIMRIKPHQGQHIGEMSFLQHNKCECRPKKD

trypsin [3] = assay: Resistance to trypsin digestion; format: in vitro ADME; details: FIG. 4
Protocol: Approximately 20% of VEGF_CKP9.54.90 was cleaved at Arg13 within loop 2 after 24 h incubation with trypsin at 37° C.

Row | Compound | inhibition of trypsin protease activity (trypsin [1]) | Kd ([2]; hVEGF-A mutant K48A) [nM] | ka ([2]; hVEGF-A mutant K48A) | kd ([2]; hVEGF-A mutant K48A) | Kd ([2]; hVEGF-A mutant Q89A) [nM] | ka ([2]; hVEGF-A mutant Q89A) | kd ([2]; hVEGF-A mutant Q89A) | Kd ([2]; hVEGF-A mutant Y21A) [nM] | ka ([2]; hVEGF-A mutant Y21A) | kd ([2]; hVEGF-A mutant Y21A) | IC50 (hVEGF-A (8-109)) [nM] | resistance to trypsin digestion (trypsin [3])
1 | CC[C@H](C)[C@@H]1NC(=O)[C@H](CC(N)=O)NC(=O)[C@@H](NC(=O)CN)CSSC[C@@H](C(=O)N[C@H](C(=O)N[C@H]2CSSC[C@@H](C(=O)NCC(=O)O)NC(=O)[C@H](CO)NC(=O)[C@H](CCC(N)=O)NC(=O)[C@H](Cc3ccc(O)cc3)NC(=O)[C@H](Cc3ccc(O)cc3)NC(=O)[C@H](CCC(N)=O)NC2=O)C(C)C)NC(=O)CNC(=O)[C@H](C)NC(=O)[C@H](CC(C)C)NC(=O)[C@@H]2CSSC[C@H](NC(=O)CNC(=O)[C@H](Cc3c[nH]c4ccccc34)NC(=O)[C@H](Cc3ccccc3)NC(=O)[C@@H]3CCCN3C(=O)[C@H](CC(C)C)NC(=O)[C@H](CCSC)NC1=O)C(=O)N[C@@H](CCCCN)C(=O)N[C@@H](CCC(N)=O)C(=O)N[C@@H](CC(=O)O)C(=O)N[C@@H](CO)C(=O)N[C@@H](CC(=O)O)C(=O)N2 [VEGF_CKP9.54] (H-GCNIMLPFWGCKQDSDCLAGCVCQYYQSCG-OH; disulfide 2-21, 11-17, 23-29 (inferred); N-terminus and C-terminus assumed) | do not inhibit | 22 | 2.64 × 10^6 | 0.0587 | 1880 | 3.37 × 10^5 | 0.7932 | 317 | 6.63 × 10^5 | 0.2101 | 450 | 
2 | CC[C@H](C)[C@@H]1NC(=O)[C@H](CC(=O)O)NC(=O)[C@@H]2CCCN2C(=O)CNC(=O)[C@@H]2CSSC[C@H](NC(=O)[C@H](CC(=O)O)NC1=O)C(=O)N[C@@H](CC(C)C)C(=O)N[C@@H](C)C(=O)NCC(=O)N[C@H](C(=O)N[C@H](C(=O)N[C@H]1CSSC[C@@H](C(=O)NCC(=O)O)NC(=O)[C@H](CO)NC(=O)[C@H](CC(N)=O)NC(=O)[C@H](Cc3ccc(O)cc3)NC(=O)[C@H](Cc3c[nH]c4ccccc34)NC(=O)[C@H](Cc3c[nH]cn3)NC1=O)C(C)C)CSSC[C@H](NC(=O)CN)C(=O)N[C@@H](CC(=O)O)C(=O)N[C@@H](C(C)C)C(=O)N[C@@H](CCSC)C(=O)N[C@@H](CCC(N)=O)C(=O)N1CCC[C@H]1C(=O)N[C@@H](Cc1ccc(O)cc1)C(=O)N[C@@H](Cc1c[nH]c3ccccc13)C(=O)NCC(=O)N2 [VEGF_CKP9.63.12] (H-GCDVMQPYWGCGPDIDCLAGCVCHWYNSCG-OH; disulfide 2-21, 11-17, 23-29 (inferred); N-terminus and C-terminus assumed) | do not inhibit | 0.33 | 5.30 × 10^7 | 0.017 | 36.5 | 7.43 × 10^6 | 0.47 | 9.84 | 1.99 × 10^7 | 1.48 × 10^−1 |  | maintain a degree of resistance
3 | CSCC[C@@H]1NC(=O)[C@H](C(C)C)NC(=O)[C@H](CC(=O)O)NC(=O)[C@@H](NC(=O)CN)CSSC[C@@H](C(=O)N[C@H](C(=O)N[C@H]2CSSC[C@@H](C(=O)NCC(=O)O)NC(=O)[C@H](CO)NC(=O)[C@H](CC(N)=O)NC(=O)[C@H](Cc3ccc(O)cc3)NC(=O)[C@H](Cc3c[nH]c4ccccc34)NC(=O)[C@H](Cc3c[nH]cn3)NC2=O)C(C)C)NC(=O)CNC(=O)[C@H](C)NC(=O)[C@H](CC(C)C)NC(=O)[C@@H]2CSSC[C@H](NC(=O)CNC(=O)[C@H](Cc3c[nH]c4ccccc34)NC(=O)[C@H](Cc3ccc(O)cc3)NC(=O)[C@@H]3CCCN3C(=O)[C@H](CCC(N)=O)NC1=O)C(=O)N[C@@H](CCCCN)C(=O)N[C@@H](CCC(N)=O)C(=O)N[C@@H](CC(=O)O)C(=O)N[C@@H](CO)C(=O)N[C@@H](CC(=O)O)C(=O)N2 [VEGF_CKP9.63] (H-GCDVMQPYWGCKQDSDCLAGCVCHWYNSCG-OH; disulfide 2-21, 11-17, 23-29 (inferred); N-terminus and C-terminus assumed) |  | 28.4 | 5.72 × 10^5 | 0.02 | 2000 | 2.66 × 10^5 | 0.51 | 585 | 7.52 × 10^5 | 0.4814 | 146 | 
